According to paper PMC12351953, “SCAN-ACT: adoptive T cell therapy target discovery through single-cell transcriptomics” (Genome Medicine, 2025):

Target: HLA-A*02:01 (Homo sapiens, UniProt P04439, D140Y/D185E/D98H/E176V/E277Q/G131W/G231S/I119V/I121R/I166T/I218V/L300P/L318F/N151K/N90K/P208A/P217A/Q86G/Q94H/R138H/R169H/T345S)
Assay: IMMUNE on-yeast peptide competition against biotinylated indicator peptide
Assay type: binding
Details: yeast-displayed HLA, 0.5 µM biotinylated indicator peptide (Bio-KLT), 20-fold more concentrated test peptide, overnight to equilibrium, flow cytometry
Text: To construct plasmids driving the expression of non-covalent HLA-I heterodimers, the commercially available backbone vector pRS315 was modified. Briefly, the entire expression cassette containing genes encoding the Aga2 leader sequence, the ectodomain of a particular HLA-I heavy chain allele (A*02:01 or A*11:01 or B*35:01 or C*12:03), the Aga2p yeast native protein subunit, an HA epitope tag, and the MFα terminator was cloned to the downstream of the GAL10 promoter in pRS315, so that the expressed HLA-I heavy chain ectodomain was fused to the N-terminus of Aga2p for yeast surface display. […]
A sufficient amount of galactose-induced yeast cells was collected by centrifugation and labeled by primary antibodies in PBS + 0.5% bovine serum albumin (BSA) for 1 h on ice. […] FL1 and FL4 fluorescence channels were selected for Alexa Fluor 488 and Alexa Fluor 647, respectively, according to the fluorophore selected at the secondary labeling step as mentioned above. […]
To design indicator peptides appropriate for evaluation of HLA peptide binding on the surface of yeast cells and for downstream competitive assay development, the reported epitope repertoire for each aforementioned HLA allele from the Immune Epitope Database was carefully analyzed. […]

## RLHRIIPKI [test peptide from SSX1 (printed SSXI), pMHC target identified through PS-TRACT]
  binding to A*02:01 (IMMUNE): bound
